Test [1] deals with T1, G protein-coupled receptor kinase 3 (Homo sapiens) (UniProt P35626).
T1 sequence (whole entry): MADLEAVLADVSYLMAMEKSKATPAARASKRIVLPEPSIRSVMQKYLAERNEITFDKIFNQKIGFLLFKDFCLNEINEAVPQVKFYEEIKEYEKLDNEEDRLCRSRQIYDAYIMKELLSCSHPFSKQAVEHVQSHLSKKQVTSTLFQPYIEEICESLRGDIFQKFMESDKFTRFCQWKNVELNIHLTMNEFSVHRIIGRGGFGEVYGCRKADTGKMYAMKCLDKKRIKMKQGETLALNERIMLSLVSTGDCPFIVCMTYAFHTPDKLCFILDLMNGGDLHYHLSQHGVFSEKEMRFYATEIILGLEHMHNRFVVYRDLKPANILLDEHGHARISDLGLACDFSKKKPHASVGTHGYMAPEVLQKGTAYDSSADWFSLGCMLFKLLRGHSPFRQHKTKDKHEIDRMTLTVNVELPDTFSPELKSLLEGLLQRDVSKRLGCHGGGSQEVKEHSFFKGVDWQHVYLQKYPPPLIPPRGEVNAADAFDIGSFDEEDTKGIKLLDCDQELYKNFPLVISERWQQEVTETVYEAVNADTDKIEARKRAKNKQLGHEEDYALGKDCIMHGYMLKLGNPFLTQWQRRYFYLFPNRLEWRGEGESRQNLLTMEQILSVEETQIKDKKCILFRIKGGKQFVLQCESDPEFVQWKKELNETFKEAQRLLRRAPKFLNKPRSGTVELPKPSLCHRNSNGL
In words: Selectivity interaction (Kinase panel (Z-LYTE Assay)) EUB0001632a ADRBK2. The conditions noted are these: at 10 µM.

For test [2], the target named is Ribosomal protein S6 kinase alpha-5 (Homo sapiens) (UniProt O75582). The conditions noted are these: at 10 µM.
Test [3] deals with Cyclin-dependent kinase 3 (Homo sapiens) (UniProt Q00526). In words: Selectivity interaction (KinomeScan (DiscoverX)) EUB0001619a CDK3. The conditions noted are these: at 1 µM.
Test [4] deals with T2, Protein kinase C zeta type (Homo sapiens) (UniProt Q05513).
T2 sequence (whole entry): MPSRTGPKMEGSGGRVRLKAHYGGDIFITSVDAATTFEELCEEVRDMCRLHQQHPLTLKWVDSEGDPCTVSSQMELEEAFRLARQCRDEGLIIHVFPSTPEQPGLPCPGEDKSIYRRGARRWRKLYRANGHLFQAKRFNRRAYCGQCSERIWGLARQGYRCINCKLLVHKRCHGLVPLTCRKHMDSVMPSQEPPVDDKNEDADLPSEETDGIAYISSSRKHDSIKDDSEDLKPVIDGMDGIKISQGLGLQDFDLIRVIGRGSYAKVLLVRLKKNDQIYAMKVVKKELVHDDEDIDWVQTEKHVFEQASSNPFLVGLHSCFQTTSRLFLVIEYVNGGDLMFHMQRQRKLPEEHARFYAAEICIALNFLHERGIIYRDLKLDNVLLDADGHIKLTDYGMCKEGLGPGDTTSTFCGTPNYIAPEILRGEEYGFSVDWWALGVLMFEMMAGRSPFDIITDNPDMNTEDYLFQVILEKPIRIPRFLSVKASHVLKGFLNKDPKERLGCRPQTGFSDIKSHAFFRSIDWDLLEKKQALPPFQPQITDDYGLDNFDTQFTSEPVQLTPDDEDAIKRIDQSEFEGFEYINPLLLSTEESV
In words: Selectivity interaction (SelectScreen profiling (Invitrogen)) EUB0000607a PRKCZ. To be noted: at 2 µM.

The target in test [5] is Ribosomal protein S6 kinase alpha-3 (Homo sapiens, UniProt P51812). In words: Selectivity interaction (ActivX KiNativ screen (kinase selectivity in THP-1 cell lysates)) EUB0000639a RPS6KA3. Type of test: subcellular. The conditions noted are these: lysate, at 0.04 µM.
In test [6] the target is Tyrosine-protein kinase ABL1 (Homo sapiens, UniProt P00519). Description: Selectivity interaction (KinomeScan (DiscoverX)) EUB0001049a ABL1. The conditions noted are these: at 1 µM.
The target in test [7] is Fibroblast growth factor receptor 1 (Homo sapiens, UniProt P11362). In words: Selectivity interaction (KinomeScan (DiscoverX)) EUB0000092b FGFR1. The conditions noted are these: at 10 µM.
The target of test [8] is T3, 5-hydroxytryptamine receptor 1A (Homo sapiens) (UniProt P08908).
T3 sequence (whole entry): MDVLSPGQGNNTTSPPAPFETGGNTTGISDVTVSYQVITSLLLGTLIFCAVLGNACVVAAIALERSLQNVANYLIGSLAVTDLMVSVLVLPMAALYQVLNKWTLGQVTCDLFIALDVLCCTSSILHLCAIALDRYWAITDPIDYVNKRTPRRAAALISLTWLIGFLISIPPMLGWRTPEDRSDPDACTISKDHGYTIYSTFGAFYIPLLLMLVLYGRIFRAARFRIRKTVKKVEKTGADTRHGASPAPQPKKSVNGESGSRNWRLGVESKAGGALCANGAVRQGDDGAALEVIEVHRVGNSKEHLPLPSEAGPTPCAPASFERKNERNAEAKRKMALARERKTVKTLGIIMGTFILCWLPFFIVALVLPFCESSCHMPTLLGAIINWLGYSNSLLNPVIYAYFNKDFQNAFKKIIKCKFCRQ
In words: Selectivity interaction (GPCR panel (PDSP screen)) EUB0001079a HTR1A. The conditions noted are these: at 10 µM.

For test [9], the target named is Macrophage-stimulating protein receptor (Homo sapiens, UniProt Q04912). Description: Selectivity interaction (KinomeScan (DiscoverX)) EUB0001079a MST1R. The conditions noted are these: at 1 µM.
The target in test [10] is T4, cGMP-dependent protein kinase 1 (Homo sapiens) (UniProt Q13976).
T4 sequence (whole entry): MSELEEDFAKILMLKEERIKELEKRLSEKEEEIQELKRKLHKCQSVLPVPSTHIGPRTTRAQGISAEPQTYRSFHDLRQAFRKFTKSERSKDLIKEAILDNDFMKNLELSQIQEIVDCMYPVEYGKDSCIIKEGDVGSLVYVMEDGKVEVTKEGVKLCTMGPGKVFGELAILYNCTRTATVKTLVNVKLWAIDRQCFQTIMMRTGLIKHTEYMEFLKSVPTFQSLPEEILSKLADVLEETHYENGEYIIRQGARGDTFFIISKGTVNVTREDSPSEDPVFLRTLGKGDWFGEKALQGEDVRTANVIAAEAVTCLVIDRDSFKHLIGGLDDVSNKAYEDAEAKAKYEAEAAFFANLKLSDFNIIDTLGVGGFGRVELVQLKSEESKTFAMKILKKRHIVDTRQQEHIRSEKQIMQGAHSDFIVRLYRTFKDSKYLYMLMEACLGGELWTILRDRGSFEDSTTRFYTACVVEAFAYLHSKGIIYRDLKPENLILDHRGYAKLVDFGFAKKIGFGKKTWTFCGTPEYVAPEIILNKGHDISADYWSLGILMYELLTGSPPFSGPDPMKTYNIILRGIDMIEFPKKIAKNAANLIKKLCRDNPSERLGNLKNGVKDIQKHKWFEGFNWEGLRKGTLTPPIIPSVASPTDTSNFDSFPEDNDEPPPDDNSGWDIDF
Description: Selectivity interaction (KinomeScan (DiscoverX)) EUB0000229b PRKG1. To be noted: at 10 µM.

Experimental findings from ChEMBL document CHEMBL5465560, “Selectivity Literature for EUbOPEN Chemogenomic Library” (2024) are described below.

Structures are written as SMILES.

Fibroblast growth factor receptor 1, sequence (P11362 22-822 limits assumed): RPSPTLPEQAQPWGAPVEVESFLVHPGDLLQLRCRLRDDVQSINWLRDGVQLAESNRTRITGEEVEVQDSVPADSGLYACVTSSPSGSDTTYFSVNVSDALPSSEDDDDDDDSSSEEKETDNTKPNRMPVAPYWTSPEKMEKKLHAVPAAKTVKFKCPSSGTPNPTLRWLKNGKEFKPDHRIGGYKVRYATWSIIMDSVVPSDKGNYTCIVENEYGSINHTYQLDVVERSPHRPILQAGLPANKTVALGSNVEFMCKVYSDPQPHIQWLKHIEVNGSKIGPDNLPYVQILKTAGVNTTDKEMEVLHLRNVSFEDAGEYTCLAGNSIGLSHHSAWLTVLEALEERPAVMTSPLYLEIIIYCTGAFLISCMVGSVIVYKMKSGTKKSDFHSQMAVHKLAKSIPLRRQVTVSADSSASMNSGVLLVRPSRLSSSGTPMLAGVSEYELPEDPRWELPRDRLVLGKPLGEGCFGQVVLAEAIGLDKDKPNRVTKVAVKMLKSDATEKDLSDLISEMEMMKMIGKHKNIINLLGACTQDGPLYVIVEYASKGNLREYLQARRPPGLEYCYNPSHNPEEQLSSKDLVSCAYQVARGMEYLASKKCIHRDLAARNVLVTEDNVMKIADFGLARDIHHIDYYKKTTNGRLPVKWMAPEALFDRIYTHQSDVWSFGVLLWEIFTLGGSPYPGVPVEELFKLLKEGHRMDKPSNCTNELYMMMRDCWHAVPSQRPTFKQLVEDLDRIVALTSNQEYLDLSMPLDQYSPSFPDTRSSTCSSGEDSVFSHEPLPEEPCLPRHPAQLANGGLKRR
Ribosomal protein S6 kinase alpha-3, sequence (P51812 whole entry): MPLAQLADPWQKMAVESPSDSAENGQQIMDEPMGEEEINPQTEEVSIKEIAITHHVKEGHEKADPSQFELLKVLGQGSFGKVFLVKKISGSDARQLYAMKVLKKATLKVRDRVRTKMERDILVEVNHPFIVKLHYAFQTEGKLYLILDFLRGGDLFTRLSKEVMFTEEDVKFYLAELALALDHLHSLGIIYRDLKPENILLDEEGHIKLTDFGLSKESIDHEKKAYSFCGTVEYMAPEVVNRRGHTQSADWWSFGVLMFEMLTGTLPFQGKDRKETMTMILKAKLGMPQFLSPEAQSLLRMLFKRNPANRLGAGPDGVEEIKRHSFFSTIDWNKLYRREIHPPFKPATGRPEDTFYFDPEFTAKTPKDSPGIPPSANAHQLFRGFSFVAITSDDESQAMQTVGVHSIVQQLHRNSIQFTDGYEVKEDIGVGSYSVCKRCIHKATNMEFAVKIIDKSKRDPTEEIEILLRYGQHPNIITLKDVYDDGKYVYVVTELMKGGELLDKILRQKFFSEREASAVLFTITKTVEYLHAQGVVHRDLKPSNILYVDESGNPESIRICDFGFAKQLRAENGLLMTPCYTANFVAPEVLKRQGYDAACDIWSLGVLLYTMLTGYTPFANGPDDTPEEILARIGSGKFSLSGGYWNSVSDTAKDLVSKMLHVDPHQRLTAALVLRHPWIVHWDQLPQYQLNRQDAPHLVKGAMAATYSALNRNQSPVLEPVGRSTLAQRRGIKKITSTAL
Tyrosine-protein kinase ABL1, sequence (P00519 whole entry): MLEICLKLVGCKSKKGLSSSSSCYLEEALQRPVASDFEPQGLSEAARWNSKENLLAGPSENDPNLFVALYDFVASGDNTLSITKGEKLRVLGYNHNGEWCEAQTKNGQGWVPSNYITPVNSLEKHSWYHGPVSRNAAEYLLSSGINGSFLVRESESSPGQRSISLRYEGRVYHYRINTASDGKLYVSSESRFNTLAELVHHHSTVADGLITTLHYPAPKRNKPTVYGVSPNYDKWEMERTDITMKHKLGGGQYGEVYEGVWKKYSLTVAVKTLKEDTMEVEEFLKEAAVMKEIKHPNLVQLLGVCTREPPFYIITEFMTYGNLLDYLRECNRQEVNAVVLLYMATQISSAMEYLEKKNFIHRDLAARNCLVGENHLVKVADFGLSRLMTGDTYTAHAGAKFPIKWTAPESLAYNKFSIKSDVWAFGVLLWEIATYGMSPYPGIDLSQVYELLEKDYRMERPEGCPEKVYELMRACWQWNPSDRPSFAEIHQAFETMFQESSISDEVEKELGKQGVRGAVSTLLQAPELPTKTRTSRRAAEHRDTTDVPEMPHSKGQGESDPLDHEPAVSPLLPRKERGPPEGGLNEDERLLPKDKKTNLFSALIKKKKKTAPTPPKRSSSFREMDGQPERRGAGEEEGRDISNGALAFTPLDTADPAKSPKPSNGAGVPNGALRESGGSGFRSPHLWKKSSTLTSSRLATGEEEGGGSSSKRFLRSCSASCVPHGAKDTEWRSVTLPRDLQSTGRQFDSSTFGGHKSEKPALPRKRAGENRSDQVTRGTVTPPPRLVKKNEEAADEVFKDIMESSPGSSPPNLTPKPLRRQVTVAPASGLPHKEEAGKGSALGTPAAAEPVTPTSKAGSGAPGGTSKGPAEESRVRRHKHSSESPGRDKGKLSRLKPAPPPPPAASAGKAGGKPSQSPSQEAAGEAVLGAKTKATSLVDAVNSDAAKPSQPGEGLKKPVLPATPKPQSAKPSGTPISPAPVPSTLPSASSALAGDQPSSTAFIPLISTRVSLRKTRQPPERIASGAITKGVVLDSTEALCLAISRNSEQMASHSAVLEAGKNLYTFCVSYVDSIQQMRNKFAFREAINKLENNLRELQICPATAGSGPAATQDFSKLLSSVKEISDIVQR
Cyclin-dependent kinase 3 (Homo sapiens), sequence (Q00526 whole entry, looked up): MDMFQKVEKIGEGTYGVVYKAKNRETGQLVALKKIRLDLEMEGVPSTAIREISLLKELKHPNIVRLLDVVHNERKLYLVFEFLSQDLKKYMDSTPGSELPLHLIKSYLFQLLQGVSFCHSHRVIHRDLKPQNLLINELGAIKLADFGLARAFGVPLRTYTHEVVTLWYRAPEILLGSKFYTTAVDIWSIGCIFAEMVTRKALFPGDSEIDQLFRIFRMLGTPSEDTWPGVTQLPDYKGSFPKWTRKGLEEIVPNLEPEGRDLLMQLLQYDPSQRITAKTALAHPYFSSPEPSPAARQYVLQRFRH
Macrophage-stimulating protein receptor, sequence (Q04912 25-304 limits assumed): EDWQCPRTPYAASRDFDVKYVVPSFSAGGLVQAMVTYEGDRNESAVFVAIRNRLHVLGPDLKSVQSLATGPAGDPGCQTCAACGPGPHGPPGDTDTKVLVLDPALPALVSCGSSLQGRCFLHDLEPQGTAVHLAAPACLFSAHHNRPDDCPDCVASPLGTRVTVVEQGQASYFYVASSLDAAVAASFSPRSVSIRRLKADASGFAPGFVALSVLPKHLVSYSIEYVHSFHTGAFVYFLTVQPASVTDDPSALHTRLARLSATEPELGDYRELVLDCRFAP
Macrophage-stimulating protein receptor, sequence (Q04912 310-1400 limits assumed): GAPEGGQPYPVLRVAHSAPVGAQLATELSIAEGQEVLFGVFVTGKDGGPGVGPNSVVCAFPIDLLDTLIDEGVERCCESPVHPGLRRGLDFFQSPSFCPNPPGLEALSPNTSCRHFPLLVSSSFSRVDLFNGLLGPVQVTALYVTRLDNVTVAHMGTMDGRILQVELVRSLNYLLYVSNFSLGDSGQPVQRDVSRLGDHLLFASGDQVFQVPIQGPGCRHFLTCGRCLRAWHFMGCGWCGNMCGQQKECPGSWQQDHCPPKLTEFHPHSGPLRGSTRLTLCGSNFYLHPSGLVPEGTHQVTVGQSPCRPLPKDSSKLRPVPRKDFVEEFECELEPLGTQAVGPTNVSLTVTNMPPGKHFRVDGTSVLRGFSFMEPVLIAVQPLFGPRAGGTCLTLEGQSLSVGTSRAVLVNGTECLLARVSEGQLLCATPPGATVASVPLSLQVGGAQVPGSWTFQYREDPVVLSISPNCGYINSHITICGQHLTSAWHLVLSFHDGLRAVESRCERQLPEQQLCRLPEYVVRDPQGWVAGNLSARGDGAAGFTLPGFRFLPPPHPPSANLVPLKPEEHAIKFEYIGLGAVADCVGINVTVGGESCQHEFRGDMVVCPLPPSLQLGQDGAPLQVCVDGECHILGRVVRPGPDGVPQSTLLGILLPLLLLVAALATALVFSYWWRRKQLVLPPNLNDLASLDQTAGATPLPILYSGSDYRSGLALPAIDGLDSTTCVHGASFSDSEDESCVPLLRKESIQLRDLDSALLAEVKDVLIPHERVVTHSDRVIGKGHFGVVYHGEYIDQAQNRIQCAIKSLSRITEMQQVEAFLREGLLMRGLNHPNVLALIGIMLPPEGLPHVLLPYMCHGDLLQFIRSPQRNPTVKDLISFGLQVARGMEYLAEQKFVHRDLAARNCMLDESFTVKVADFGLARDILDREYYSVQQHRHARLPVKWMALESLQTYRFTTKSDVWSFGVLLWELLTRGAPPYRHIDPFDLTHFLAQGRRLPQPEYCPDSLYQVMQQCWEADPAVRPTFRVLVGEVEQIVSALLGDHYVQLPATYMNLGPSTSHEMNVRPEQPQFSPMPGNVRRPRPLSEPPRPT

In the case of `Cn1cc(-n2cnc3c(NCc4nc5cc(Cl)c(Cl)cc5[nH]4)nc(N4CCOCC4)nc32)cn1`, the % of control in test [1] was -1.17%.

Turning to `COCC(=O)NC/C=C/c1ccc2ncnc(Nc3ccc(Oc4ccc(C)nc4)c(C)c3)c2c1` [CP-724714], the % of control in test [2] is 99%.

Take `N#Cc1cccc(-c2c[nH]c3ncnc(N4CCOCC4)c23)c1`: in [3], the % of control stood at 93%.

On to `CNC(=O)Nc1ccc(-c2nc(N3CC4CCC(C3)O4)c3cnn(C4CCC5(CC4)OCCO5)c3n2)cc1`, for which the % of inhibition in test [4] is 8%.

On to `CC[C@@H]1[C@H](F)C(=O)N[C@@H]1COc1nccc2cc(C(N)=O)c(OC)cc12` [ZIMLOVISERTIB], for which the % of inhibition in [5] is -18.2%.

As for `COc1cc(Nc2nc(C)cc(-c3cnn4nc(OC)ccc34)n2)cc(C(F)(F)F)c1`, in test [6], the % of control was 84%.

Turning to `CCC(=O)N1CCN(c2ccc(-n3c(=O)ccc4cnc5ccc(-c6cnc7ccccc7c6)cc5c43)cc2C(F)(F)F)CC1`, in test [7], the % of control is 96%.

For the compound `Nc1cnc(N2CCc3cc(S(=O)(=O)Nc4c(F)cc(Cl)cc4F)cc(N4CCCC4=O)c32)nc1` [TP-020n], the % of inhibition in test [8] was 4.45%. Further, the % of control in test [9] worked out at 98%.

The compound `COc1cc(N(C)c2ccnc3ccc(C(F)(F)F)cc23)cc(OC)c1OC` showed a % binding in test [10] of 76%.
